Consider one molecule from patent publication US20150126519A1, “ANTIBIOTIC COMPOUNDS AND COMPOSITIONS, AND METHODS FOR IDENTIFICATION THEREOF” (Fred Hutchinson Cancer Research Center, priority 2012, published 2015).

Several values for one entry are separate records, joined by “and”; a condition that tells them apart may be missing. Equal values may be shown once.

As usually defined, the IC50 is the concentration that gives 50% inhibition.

Assay type in all cases: biochemical
The target of assay [1] is E. coli gyrase (Escherichia coli, UniProt P0AES4+P0AES6). Nature of the assay: Gyrase-catalysed supercoiling. The method, then: Several compounds as described herein were evaluated for their ability to inhibit bacterial DNA gyrase.
The target of assay [2] is E. coli RecBCD (Escherichia coli, UniProt P04993+P07648+P08394). In words: RecBCD helicase (DNA unwinding) and Chi cutting assay. Here is the method:
Helicase assays measured the formation of ss DNA from 5′ [^32P] pBR322 X^+^F (or X^o control) DNA (0.1 nM molecules) linearized by digestion with HindIII enzyme. […] Reactions were started by addition of ATP and were at 37° C. for 1 min (RecBCD) or 2 min (AddAB). […] Gels were dried under vacuum, and the products detected by autoradiography or analyzed with a Typhoon Trio PhosphorImager (GE Lifesciences) and ImageQuant TL software (Amersham).

The target in assay [3] is M. smegmatis AddAB (Mycolicibacterium smegmatis, UniProt A0QTR9+A0QTS0). Nature of the assay: Purified AddAB nuclease assay. The note with it: purified enzyme; read-out: Nuclease IC50, M. smeg AddAB.
Chain of M. smegmatis AddAB (A0QTS0 entry or part of it): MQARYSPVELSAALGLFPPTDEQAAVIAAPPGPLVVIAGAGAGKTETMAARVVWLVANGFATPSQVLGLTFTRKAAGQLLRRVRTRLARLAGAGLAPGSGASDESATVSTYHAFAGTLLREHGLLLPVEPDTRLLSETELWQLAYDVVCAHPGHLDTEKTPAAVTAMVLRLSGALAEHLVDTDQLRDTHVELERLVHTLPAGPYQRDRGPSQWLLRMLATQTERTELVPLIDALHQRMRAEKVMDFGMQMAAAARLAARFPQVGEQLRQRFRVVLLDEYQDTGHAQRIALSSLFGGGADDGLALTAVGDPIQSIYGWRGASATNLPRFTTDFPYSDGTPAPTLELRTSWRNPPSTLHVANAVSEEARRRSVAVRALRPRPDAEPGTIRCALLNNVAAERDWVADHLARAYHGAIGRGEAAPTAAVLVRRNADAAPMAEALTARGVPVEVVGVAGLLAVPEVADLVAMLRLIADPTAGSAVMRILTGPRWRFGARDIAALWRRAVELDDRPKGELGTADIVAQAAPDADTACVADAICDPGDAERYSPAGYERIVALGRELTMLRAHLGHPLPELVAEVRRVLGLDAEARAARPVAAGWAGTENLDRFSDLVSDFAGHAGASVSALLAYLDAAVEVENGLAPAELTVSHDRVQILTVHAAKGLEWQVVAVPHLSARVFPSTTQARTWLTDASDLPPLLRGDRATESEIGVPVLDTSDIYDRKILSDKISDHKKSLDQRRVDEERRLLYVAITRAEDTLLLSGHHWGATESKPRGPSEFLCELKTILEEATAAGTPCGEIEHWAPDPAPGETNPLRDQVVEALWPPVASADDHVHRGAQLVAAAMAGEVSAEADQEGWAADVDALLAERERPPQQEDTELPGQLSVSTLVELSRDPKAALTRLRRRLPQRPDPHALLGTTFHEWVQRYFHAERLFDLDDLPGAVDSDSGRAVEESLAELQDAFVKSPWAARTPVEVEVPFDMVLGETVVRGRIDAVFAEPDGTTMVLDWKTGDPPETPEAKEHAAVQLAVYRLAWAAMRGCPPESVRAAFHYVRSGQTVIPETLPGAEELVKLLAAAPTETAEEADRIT
Chain of M. smegmatis AddAB (A0QTR9 entry or part of it): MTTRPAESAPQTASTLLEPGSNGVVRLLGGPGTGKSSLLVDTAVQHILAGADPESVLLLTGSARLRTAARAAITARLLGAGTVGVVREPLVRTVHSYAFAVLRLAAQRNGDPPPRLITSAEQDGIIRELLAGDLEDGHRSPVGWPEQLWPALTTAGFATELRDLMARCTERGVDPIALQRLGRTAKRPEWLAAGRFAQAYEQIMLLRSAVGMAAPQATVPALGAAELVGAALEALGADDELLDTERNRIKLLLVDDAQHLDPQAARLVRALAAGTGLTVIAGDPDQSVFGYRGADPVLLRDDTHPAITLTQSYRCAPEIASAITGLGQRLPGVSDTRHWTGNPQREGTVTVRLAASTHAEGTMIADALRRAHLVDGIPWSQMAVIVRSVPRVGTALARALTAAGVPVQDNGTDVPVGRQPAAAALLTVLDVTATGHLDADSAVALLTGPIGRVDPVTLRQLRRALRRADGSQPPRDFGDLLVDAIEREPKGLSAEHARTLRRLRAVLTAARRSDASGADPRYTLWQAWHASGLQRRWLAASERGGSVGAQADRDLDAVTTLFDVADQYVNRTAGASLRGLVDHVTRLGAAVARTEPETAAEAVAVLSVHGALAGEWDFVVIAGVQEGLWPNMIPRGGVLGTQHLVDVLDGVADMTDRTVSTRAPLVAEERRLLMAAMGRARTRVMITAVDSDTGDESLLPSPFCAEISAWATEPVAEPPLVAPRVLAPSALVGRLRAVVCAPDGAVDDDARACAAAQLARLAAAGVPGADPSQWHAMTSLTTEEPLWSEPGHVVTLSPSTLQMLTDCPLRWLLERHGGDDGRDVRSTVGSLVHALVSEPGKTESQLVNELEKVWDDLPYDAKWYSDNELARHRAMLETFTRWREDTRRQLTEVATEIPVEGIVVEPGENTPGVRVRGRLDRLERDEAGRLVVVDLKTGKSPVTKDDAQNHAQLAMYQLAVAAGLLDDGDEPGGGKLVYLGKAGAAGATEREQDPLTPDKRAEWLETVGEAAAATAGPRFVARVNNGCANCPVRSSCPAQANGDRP

Chain of E. coli RecBCD (P04993 whole entry): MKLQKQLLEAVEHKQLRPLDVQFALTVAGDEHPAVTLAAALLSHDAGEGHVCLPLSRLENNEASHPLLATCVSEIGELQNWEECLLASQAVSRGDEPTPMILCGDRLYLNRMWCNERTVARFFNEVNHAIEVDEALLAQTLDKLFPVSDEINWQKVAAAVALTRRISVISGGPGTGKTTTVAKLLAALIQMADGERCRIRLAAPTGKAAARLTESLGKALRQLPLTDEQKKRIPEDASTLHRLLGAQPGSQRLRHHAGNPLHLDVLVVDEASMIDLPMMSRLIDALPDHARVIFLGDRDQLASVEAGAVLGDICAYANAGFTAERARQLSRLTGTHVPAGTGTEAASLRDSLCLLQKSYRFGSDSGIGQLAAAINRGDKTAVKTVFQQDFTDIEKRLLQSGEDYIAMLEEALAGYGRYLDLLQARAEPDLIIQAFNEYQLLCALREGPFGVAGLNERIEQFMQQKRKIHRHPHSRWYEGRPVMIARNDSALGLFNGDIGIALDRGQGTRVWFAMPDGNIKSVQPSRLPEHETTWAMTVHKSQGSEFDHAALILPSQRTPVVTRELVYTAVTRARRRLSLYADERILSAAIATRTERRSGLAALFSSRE
Chain of E. coli RecBCD (P08394 whole entry): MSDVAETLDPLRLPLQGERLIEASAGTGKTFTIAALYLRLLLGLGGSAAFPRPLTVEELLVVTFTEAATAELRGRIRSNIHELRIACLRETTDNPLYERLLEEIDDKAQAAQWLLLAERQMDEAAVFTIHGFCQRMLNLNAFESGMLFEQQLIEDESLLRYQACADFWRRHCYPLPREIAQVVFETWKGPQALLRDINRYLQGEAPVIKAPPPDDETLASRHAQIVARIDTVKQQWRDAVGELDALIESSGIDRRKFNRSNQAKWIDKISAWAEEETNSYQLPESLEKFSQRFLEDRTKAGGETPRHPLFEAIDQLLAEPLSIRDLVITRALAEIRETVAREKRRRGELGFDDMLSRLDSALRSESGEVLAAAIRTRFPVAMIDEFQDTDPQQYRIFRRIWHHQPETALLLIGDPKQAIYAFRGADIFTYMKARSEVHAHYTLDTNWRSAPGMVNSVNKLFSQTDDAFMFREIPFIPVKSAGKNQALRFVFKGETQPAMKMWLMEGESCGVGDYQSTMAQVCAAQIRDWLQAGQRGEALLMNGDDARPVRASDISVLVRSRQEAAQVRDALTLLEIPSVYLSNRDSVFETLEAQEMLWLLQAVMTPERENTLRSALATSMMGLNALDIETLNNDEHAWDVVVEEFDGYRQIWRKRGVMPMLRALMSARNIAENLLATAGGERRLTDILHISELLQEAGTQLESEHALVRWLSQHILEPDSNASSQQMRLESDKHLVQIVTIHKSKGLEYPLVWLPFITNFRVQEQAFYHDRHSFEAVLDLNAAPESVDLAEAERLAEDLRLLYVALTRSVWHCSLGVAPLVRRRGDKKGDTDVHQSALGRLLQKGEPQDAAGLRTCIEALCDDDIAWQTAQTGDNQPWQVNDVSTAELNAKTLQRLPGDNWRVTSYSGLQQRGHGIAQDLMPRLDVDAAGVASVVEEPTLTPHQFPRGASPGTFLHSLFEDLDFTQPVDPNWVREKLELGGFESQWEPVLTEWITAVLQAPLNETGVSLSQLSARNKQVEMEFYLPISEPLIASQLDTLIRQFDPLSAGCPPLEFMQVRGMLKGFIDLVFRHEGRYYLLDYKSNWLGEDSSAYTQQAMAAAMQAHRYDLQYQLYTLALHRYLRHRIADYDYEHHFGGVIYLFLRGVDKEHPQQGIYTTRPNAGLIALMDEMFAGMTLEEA
Chain of E. coli RecBCD (P07648 whole entry): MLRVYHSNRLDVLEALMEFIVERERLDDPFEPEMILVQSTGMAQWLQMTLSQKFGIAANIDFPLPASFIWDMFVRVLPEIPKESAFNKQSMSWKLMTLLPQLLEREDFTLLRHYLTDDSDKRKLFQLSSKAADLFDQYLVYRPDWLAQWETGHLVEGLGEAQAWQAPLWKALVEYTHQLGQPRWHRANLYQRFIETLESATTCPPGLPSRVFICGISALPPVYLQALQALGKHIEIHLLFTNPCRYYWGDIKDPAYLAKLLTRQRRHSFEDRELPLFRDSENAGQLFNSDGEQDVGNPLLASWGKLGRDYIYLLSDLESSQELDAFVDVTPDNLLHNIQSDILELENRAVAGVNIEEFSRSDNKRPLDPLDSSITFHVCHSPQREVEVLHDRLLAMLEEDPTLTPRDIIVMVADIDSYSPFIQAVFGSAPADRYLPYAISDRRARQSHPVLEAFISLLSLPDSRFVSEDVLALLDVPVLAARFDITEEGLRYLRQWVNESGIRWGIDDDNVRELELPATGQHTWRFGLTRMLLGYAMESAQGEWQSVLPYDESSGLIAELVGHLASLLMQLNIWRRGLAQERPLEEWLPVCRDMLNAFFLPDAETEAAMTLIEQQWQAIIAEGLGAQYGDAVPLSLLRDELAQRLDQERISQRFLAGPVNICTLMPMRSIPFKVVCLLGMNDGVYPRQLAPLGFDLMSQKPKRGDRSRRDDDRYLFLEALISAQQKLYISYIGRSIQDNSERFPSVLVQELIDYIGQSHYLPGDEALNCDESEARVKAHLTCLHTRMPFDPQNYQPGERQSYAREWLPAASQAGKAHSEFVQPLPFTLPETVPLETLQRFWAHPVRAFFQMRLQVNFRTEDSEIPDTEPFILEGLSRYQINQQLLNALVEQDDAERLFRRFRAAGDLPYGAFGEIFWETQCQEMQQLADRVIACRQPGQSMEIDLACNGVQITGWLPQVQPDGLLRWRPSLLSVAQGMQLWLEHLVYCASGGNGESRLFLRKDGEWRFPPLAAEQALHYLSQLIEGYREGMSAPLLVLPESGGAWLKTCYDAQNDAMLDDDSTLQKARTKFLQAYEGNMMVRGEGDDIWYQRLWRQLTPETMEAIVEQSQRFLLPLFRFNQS

Regarding `CCn1cc(C(=O)O)c(=O)c2cnc(N3CCN(C(=S)Nc4cccc(C(F)(F)F)c4)CC3)nc21` [Compound 3], the “gyrase inhibition (in words)” value in assay [1] was “weak gyrase inhibitor”. In addition, the “inhibition of RecBCD unwinding and Chi-cutting activities (in words)” value in assay [2] is reported as “biphasic way”. The IC50 was ~5 µM and ~3 µM in assay [2] (purified enzyme, read-out: IC50 for RecBCD helicase and Chi-cutting activities); 2.4 µM in assay [3].
